Laboratory results reported in patent US20050228046A1, “Alkylamine as an antimicrobial agent in ophthalmic compositions” (ADVANCED MEDICAL OPTICS, INC., priority 2004, published 2005).
Values belong to the compound of their own block, whether it stands above or below them.

Legend:
[1] = test system: Staphylococcus aureus, ATCC 6538; experiment: Microbiology challenge test, log drop; format: cell-based
Experimental: (§1) The following is the procedure by which various antimicrobial agents and solutions are tested for their ability to reduce microbial loads over short periods of time, typically 24 hours and less. The procedure is a basic microbiology challenge test, which involves the inoculation of test product aliquots with a known number of viable cells of several test organisms, and assay for the survivors at various time intervals. The results are used to calculate log drops at soak times and construct kill-curves (graphs of survivors versus time) if desired.
(§2) Candida albicans, ATCC 10231, is one of five organisms specified per FDA and ISO/CLI tests for the testing of contact lens disinfectants (FDA Premarket Notification (510k) Guidance Document for Contact Lens Care Products, Appendix B, Apr. 1, 1997 and ISO/FDIS 14729: Ophthalmic optics-Contact lens care products-Microbiological requirements and test methods for products and regimens for hygienic management of contact lenses, January 2001). Contact lens disinfectants are also known as contact lens multi-purpose solutions when they are used for rinsing, cleaning, disinfection, storage and rewetting contact lenses. The five FDA/ISO specified test organisms are listed below: • Serratia marcescens, ATCC 13880 • Staphylococcus aureus, ATCC 6538 • Pseudomonas aeruginosa, ATCC 9027 • Candida albicans, ATCC 10231 • Fusarium solani, ATCC 36031
(§3) The specific test procedure for testing antimicrobial activity against the five FDA/ISO specified test organisms is as follows (C. albicans is provided as a specific example): Test samples are sterile-filtered through a 0.22 micron sterile filter into sterile plastic high density polyethylene bottles or plastic flasks. A 10-mL aliquot of test sample is aseptically transferred into a sterile polystyrene plastic test tube. Sterile saline (0.90 w/v % NaCl) with 0.05 w/v % Polysorbate 80 (SS+TWEEN) is transferred into a separate control tube. All samples and control are stored at 20-25° C. throughout the duration of the test.
(§4) Test cultures of Candida albicans, ATCC 10231 are prepared in the conventional manner. Candida albicans cultures are grown on agar slants from primary frozen, lyophilized or “Culti-loop®” cultures. Three mL of sterile 0.9% saline is used to gently dislodge culture growth from the agar surface. The resulting harvest is transferred to an appropriate screw cap test tube containing glass beads and vortexed for approximately one minute. The vortexed harvest is diluted as needed with sterile 0.9% saline to prepare the culture inoculum with a concentration of 1×10e8 CFU/mL. Fifty microliters of culture inoculum is added to 10.0 mL of each test sample and control, so that the final inoculum level is in the range of 1×10e5 to 1×10e6 CFU(colony forming units) per mL of Candida albicans, ATCC 10231. Each sample and control tube is vortexed briefly to disperse the inoculum. Contact time intervals for testing activity against Candida are typically 4 or 6 hours, to conform to the intended product label instructions for contact lens soak time.
(§5) Aerobic Plate Count Methods are performed in order to quantitate test samples for their levels of survivors. At appropriate assay times, 0.5 mL well-vortexed aliquots are removed from sample tubes and added to glass test tubes containing 4.5 mL Letheen Neutralizing Broth media (Berton, Dickinson and Company, Sparks, Md.). After a previously determined, validated neutralizing time period, these samples are diluted 10-fold through serial dilutions using glass test tubes containing 4.5 mL Letheen Neutralizing Broth media. Aliquots of 0.1 mL are removed from each dilution tube and spread-plate applied to agar plates containing Sabouraud Dextrose Agar (SAB)(Berton, Dickinson and Company, Sparks, Md.). 10^1 to 10^4 CFU/mL survivor levels are quantitated. […]

[2] = test system: Candida albicans, ATCC 10231; experiment: Microbiology challenge test, log drop; format: cell-based
Experimental: as §1, §2, §3, §4, §5

[3] = test system: Pseudomonas aeruginosa, ATCC 9027; experiment: Microbiology challenge test, log drop; format: cell-based
Experimental: as §1, §2, §3, §4, §5

[4] = test system: Fusarium solani, ATCC 36031; experiment: Microbiology challenge test, log drop; format: cell-based
Experimental: as §1, §2, §3, §4, §5

[5] = test system: Serratia marcescens, ATCC 13880; experiment: Microbiology challenge test, log drop; format: cell-based
Experimental: as §1, §2, §3, §4, §5

[6] = Contact lens uptake: content left in solution after shaking with lenses; format: physicochemical; details: Myristylamine with TPGS 20 fold; for remaining content left in solution, Acuvue / remaining content left in solution, Purevision: 15 ml solution, closed system shaken 6 days at room temperature; for remaining content left in solution, Acuvue: 2 Acuvue lenses; for remaining content left in solution, Purevision: 2 Purevision lenses; for remaining content left in solution, Without Lens: 15 ml system without lenses, shaken 6 days at room temperature
Experimental: The results in Table 9A show the remaining quaternary ammonium and tertiary amine content left in solution after a 15 ml-solution-2 lenses closed system has been shaken for 6 days at room temperature. […] The control which was run for this experiment, which includes the remaining ingredients in the solutions referenced in Table 9A are listed in Table 9B. As one of ordinary skill in the art would realize, the less quaternary ammonium or tertiary amine content remaining in solution after the shaking period, the higher the absorption by the lenses.

[7] = test system: five FDA/ISO specified test organisms; experiment: Antimicrobial activity against the five-microbial panel, FDA/ISO disinfection criteria; format: cell-based; details: result in words
Experimental: The following is the procedure by which various antimicrobial agents and solutions are tested for their ability to reduce microbial loads over short periods of time, typically 24 hours and less. The procedure is a basic microbiology challenge test, which involves the inoculation of test product aliquots with a known number of viable cells of several test organisms, and assay for the survivors at various time intervals. The results are used to calculate log drops at soak times and construct kill-curves (graphs of survivors versus time) if desired. Candida albicans, ATCC 10231, is one of five organisms specified per FDA and ISO/CLI tests for the testing of contact lens disinfectants (FDA Premarket Notification (510k) Guidance Document for Contact Lens Care Products, Appendix B, Apr. 1, 1997 and ISO/FDIS 14729: Ophthalmic optics-Contact lens care products-Microbiological requirements and test methods for products and regimens for hygienic management of contact lenses, January 2001). Contact lens disinfectants are also known as contact lens multi-purpose solutions when they are used for rinsing, cleaning, disinfection, storage and rewetting contact lenses. The five FDA/ISO specified test organisms are listed below: • Serratia marcescens, ATCC 13880 • Staphylococcus aureus, ATCC 6538 • Pseudomonas aeruginosa, ATCC 9027 • Candida albicans, ATCC 10231 • Fusarium solani, ATCC 36031 Candida albicans is often the most resistant of the five organisms to commonly used cationic antimicrobial agents in contact lens multi-purpose solutions. Thus, achievement of adequate antimicrobial activity against Candida is often the most difficult task to pass a particular disinfection efficacy standard. FDA and ISO guidelines specify two disinfection efficacy standards, indicated in the table below: Stand Alone Disinfectant (Primary) Criteria: [table] The specific test procedure for testing antimicrobial activity against the five FDA/ISO specified test organisms is as follows (C. albicans is provided as a specific example): Test samples are sterile-filtered through a 0.22 micron sterile filter into sterile plastic high density polyethylene bottles or plastic flasks. A 10-mL aliquot of test sample is aseptically transferred into a sterile polystyrene plastic test tube. Sterile saline (0.90 w/v % NaCl) with 0.05 w/v % Polysorbate 80 (SS+TWEEN) is transferred into a separate control tube. All samples and control are stored at 20-25° C. throughout the duration of the test.

[8] = Table 8B: Cetylamine 0.0001 % w/w with PHMB 0.00002, Pluronic F87 0.05, pH 7.7
[9] = Table 8B: Cetylamine 0.0001 % w/w, PHMB 0.00, Pluronic F87 0.05, pH 7.7
[10] = Table 8B: Cetylamine 0.000125 % w/w, PHMB 0.00, Pluronic F87 0.05, pH 7.7
[11] = Table 8B: Cetylamine 0.0003 % w/w, PHMB 0.00, Pluronic F87 0.05, pH 7.7
[12] = Table 2B: Dodecylamine 0.0003 % w/w, Tetronic 1307 0.05, pH 7.8
[13] = Table 2B: Dodecylamine 0.0005 % w/w, Tetronic 1307 0.05, pH 7.8
[14] = Cetylpyridinium Chloride 0.001 w/v %, TPGS 0, Tetronic 1307 0.05
[15] = Cetylpyridinium Chloride 0.001 w/v %, TPGS 0.025, Tetronic 1307 0.05

Compound: CCCCCCCCCCCCCCCCN [Cetylamine]
Log Drop [1, 8]: 4.81 | Log Drop [1, 9]: 4.18 | Log Drop [1, 10]: 4.81 | Log Drop [1, 11]: 4.79 | Log Drop [2, 8]: 1.51 | Log Drop [2, 9]: 2.89 | Log Drop [2, 10]: 1.97 | Log Drop [2, 11]: 2.89 | Log Drop [3, 8]: 4.43 | Log Drop [3, 9]: 4.49 | Log Drop [3, 10]: 3.95 | Log Drop [3, 11]: 4.49 | Log Drop [4, 8]: 1.14 | Log Drop [4, 9]: 1.3 | Log Drop [4, 10]: 2.76 | Log Drop [4, 11]: 1.48 | Log Drop [5, 8]: 4.18 | Log Drop [5, 9]: 2.35 | Log Drop [5, 10]: 3.76 | Log Drop [5, 11]: 3.61

remaining content left in solution, Acuvue [6]: 35.0 ppm | remaining content left in solution, Purevision [6]: 14.1 ppm | remaining content left in solution, Without Lens [6]: 44.4 ppm
Compound: CCCCCCCCCCCCN [Dodecylamine, reference compound]
Log Drop [1, 12]: 0.34 | Log Drop [1, 13]: 0.12 | Log Drop [2, 12]: 0.91 | Log Drop [2, 13]: 1.77 | Log Drop [3, 12]: 1.4 | Log Drop [3, 13]: 1.36 | Log Drop [4, 12]: 0.09 | Log Drop [4, 13]: 0.16 | Log Drop [5, 12]: 0.46 | Log Drop [5, 13]: 0.46 | antimicrobial activity [7]: very weak antimicrobial activity | antimicrobial activity ([7]; listed as dodecylamine): not qualified as a disinfectant for contact lens care

Compound: CCCCCCCCCCCCCC(=O)NCCCN(C)C [Myristylamidopropyl-dimethylamine]
remaining content left in solution, Acuvue [6]: 18.2 ppm | remaining content left in solution, Purevision [6]: 4.7 ppm | remaining content left in solution, Without Lens [6]: 43.5 ppm

Compound: CCCCCCCCCCCCCCCC[n+]1ccccc1 [Cetylpyridinium Chloride, reference compound]
Log Drop [2, 14]: 4.41 | Log Drop [2, 15]: 0.12 | Log Drop [4, 14]: >4.08 | Log Drop [4, 15]: 1.06 | remaining content left in solution, Acuvue [6]: 3.3 ppm | remaining content left in solution, Purevision [6]: 1.3 ppm | remaining content left in solution, Without Lens [6]: 42.7 ppm
